Source: patent EP0118838A2, “New cephem compounds processes for preparation thereof and pharmaceutical compositions containing them” (FUJISAWA PHARMACEUTICAL CO., LTD., priority 1983, dated 1984)

How the values were obtained:
Proteus mirabilis 18 = experiment: In vitro antibacterial activity, two-fold agar-plate dilution method; type: cell-based; settings: HI-agar, incubation at 37°C for 20 hours, inoculum 10^8 viable cells per ml
Method: (§1) In vitro antibacterial activity was determined by the two-fold agar-plate dilution method as described below. One loopful of an overnight culture of each test strain in Trypticase-soy broth (10^8 viable cells per ml.) was streaked on heart infusion agar (HI-agar) containing graded concentrations of test compound , and minimal inhibitory concentration (MIC) was expressed in terms of µg/ml after incubation at 37°C for 20 hours.

Proteus vulgaris 2 = experiment: as above; type: cell-based; settings: HI-agar, incubation at 37°C for 20 hours, inoculum 10^8 viable cells per ml
Method: as §1

SMILES: Nc1nc(/C(=N/OCC(=O)O)C(=O)NC2C(=O)N3C(C(=O)O)=C(CSc4snc(O)c4C(=O)O)CSC23)ns1 (stereo not drawn) [Test Compound, Sodium 7-[2-(5-amino-1,2,4-thiadiazol-3-yl)-2-carboxymethoxyiminoacetamido]-3-[(4-carboxy-3-hydroxyisothiazol-5-yl)thiomethyl]-3-cephem-4-carboxylate (syn isomer)]
- MIC (Proteus mirabilis 18): < 0.025 µg/mL
- MIC (Proteus vulgaris 2): < 0.025 µg/mL
